# Data from ChEMBL document CHEMBL5042504 (J Med Chem, 2022).
# Tests used:
# [1] = biological target: T1, Protein deacetylase HDAC6 (Homo sapiens, UniProt Q9UBN7); test: Inhibition of human recombinant HDAC6 using Boc-Lys(acetyl)-AMC substrate incubated for 2 hrs by fluorescence based assay
# T1 sequence (Q9UBN7 whole entry): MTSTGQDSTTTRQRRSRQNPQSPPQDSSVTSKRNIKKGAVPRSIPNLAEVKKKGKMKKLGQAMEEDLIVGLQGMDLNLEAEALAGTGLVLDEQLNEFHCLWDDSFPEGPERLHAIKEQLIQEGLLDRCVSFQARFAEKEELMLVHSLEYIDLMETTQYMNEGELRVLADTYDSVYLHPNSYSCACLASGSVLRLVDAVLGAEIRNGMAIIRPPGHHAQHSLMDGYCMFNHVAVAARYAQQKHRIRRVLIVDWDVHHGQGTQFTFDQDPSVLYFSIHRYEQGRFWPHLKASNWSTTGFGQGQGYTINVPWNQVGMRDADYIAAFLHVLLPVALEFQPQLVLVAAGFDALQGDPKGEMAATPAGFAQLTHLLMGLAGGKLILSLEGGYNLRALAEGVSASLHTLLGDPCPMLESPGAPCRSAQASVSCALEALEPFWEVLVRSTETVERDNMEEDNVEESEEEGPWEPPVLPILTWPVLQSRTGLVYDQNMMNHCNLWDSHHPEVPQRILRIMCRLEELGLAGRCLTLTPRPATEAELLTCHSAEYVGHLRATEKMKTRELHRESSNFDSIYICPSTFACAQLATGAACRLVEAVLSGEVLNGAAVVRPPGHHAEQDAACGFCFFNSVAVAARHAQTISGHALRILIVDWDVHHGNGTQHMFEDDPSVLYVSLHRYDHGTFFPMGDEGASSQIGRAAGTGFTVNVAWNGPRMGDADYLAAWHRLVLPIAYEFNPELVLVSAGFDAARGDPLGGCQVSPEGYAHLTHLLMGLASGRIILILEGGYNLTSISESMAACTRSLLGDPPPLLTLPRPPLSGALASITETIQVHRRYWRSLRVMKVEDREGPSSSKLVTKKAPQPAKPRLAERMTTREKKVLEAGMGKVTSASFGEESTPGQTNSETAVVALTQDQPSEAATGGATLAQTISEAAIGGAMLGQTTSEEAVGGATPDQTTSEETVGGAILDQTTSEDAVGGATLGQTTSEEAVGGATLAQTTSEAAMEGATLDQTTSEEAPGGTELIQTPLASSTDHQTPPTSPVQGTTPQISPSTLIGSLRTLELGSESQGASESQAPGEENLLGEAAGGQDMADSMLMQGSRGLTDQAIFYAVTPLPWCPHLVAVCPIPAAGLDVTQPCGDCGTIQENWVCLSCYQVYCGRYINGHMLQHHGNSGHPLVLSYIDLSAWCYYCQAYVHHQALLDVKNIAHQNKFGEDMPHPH
# [2] = biological target: Histone deacetylase 1 (Homo sapiens, UniProt Q13547); test: Inhibition of human recombinant HDAC1 using Boc-Lys(acetyl)-AMC substrate incubated for 2 hrs by fluorescence based assay
# [3] = biological target: Histone deacetylase 3 (Homo sapiens, UniProt O15379); test: Inhibition of human recombinant HDAC3 using Boc-Lys(acetyl)-AMC substrate incubated for 2 hrs by fluorescence based assay
# [4] = biological target: Histone deacetylase 2 (Homo sapiens, UniProt Q92769); test: Inhibition of human recombinant HDAC2 using Boc-Lys(acetyl)-AMC substrate incubated for 2 hrs by fluorescence based assay
# [5] = system: MV4-11; test: cells; settings: Homo sapiens, MV4-11, 48 h
# Description: Antiproliferative activity against human MV4-11 AML cells assessed as cell viability measured after 48 hrs by multiplate reader method
# Sequence of Histone deacetylase 3 (O15379 whole entry): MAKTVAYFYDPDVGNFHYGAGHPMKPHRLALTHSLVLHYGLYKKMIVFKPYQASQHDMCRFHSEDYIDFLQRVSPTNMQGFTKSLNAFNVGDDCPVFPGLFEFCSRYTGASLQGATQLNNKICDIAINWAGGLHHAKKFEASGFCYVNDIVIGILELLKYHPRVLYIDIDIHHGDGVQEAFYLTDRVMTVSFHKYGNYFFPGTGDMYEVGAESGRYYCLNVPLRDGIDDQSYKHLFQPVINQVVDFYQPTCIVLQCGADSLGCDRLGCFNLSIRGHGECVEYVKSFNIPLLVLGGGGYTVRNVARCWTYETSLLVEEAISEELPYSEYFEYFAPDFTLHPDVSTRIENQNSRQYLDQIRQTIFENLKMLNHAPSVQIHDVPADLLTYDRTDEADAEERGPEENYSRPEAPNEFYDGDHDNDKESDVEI
# Sequence of Histone deacetylase 2 (Q92769 whole entry): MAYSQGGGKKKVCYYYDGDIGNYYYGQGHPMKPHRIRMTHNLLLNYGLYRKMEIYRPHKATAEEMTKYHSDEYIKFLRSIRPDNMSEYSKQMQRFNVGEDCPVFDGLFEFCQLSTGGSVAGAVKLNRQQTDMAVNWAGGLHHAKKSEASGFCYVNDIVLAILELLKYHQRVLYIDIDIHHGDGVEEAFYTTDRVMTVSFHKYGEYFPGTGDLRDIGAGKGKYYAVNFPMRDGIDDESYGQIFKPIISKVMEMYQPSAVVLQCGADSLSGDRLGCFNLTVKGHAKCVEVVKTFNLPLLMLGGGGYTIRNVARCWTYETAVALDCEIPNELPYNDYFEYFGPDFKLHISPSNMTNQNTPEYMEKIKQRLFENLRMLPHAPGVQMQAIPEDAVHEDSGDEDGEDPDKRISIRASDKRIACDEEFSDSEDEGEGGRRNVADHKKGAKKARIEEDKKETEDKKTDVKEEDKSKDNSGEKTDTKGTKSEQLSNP
# Sequence of Histone deacetylase 1 (Q13547 whole entry): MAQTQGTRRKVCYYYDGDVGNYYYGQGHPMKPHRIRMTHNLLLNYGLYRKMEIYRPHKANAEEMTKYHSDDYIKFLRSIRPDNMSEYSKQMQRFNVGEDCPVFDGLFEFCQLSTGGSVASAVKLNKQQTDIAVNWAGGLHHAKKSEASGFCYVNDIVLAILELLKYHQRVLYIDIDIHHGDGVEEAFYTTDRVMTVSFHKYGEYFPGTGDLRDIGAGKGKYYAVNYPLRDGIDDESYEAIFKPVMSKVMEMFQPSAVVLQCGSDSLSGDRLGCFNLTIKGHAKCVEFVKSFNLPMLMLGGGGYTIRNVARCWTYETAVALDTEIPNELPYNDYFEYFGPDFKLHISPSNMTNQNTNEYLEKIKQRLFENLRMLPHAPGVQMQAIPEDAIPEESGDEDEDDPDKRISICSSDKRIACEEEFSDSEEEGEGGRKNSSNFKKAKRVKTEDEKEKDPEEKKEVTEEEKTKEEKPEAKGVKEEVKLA
SMILES,IC50 [1] [nM],IC50 [2] [nM],IC50 [3] [nM],IC50 [4] [nM],IC50 [5] [nM]
CCCNNC(=O)c1ccc(CNC(=O)c2ccc3ccncc3c2)cc1,> 10000,20.8,1.55,30.1,74
CCCNNC(=O)c1ccc(CNC(=O)c2cc3cc(O)ccc3o2)cc1,> 10000,3.91,0.51,16.1,40
CCCNNC(=O)c1ccc(CNC(=O)c2cc3ccccc3s2)cc1,> 10000,–,–,–,–
CCCNNC(=O)c1ccc(CNC(=O)c2cc3cc(Br)ccc3[nH]2)cc1,> 10000,58.3,1.31,186,66.5
CCCNNC(=O)c1ccc(CNC(=O)c2cc3ccccc3o2)cc1,> 10000,3.52,0.38,15.1,–
CCCNNC(=O)c1ccc(CNC(=O)c2ccc3ccccc3c2)cc1,> 10000,7.98,0.89,30.5,43.6
CCCNNC(=O)c1ccc(CNC(=O)c2cc3cc(F)ccc3[nH]2)cc1,> 10000,12.9,1.61,52.7,91.2
CCCNNC(=O)c1ccc(CNC(=O)c2ccc3cnccc3c2)cc1,> 10000,17.1,1.03,39.6,64.1
CCCNNC(=O)c1ccc(CNC(=O)c2cc3cc(F)ccc3o2)cc1,> 10000,8.22,0.83,27.9,56.5
CCCNNC(=O)c1ccc(CNC(=O)c2ccc3cnccc3n2)cc1,> 10000,16.2,2.03,41.4,59.7
CCCNNC(=O)c1ccc(CNC(=O)c2cc3cc(Br)ccc3o2)cc1,> 10000,7.85,0.62,23.7,159
CCCNNC(=O)c1ccc(CNC(=O)c2cnc3ccccc3c2)cc1,> 10000,13.7,1.79,59.6,71
